According to publication PMC6591174, “The beneficial androgenic action of steroidal aromatase inactivators in estrogen-dependent breast cancer after failure of nonsteroidal drugs” (Cell Death & Disease, 2019):

Assays:
MCF-7 cells (AR siRNA) = assay: Proliferation of MCF-7 cells after AR downregulation by siRNA; type: cell-based, human; details: 100 nM, 72 h
Method: Cells were cultured and treated as described in the legend of Fig. 2. […] Cell growth is expressed as the ratio of the number of cells in the experimental well to that in control wells (untreated cells). The columns represent the mean of three experiments, each with five replicates; bars, SEM. *P ≤ 0.05, **P ≤ 0.01 vs. control
AR siRNA and its control siRNA used in this study were described by Wu et al.. The sequence of the AR siRNA used was 5′-[…]-3′ and a nonspecific siRNA duplex was used as a negative control. Growing cells were switched to PRF for 24 h and then switched to 10% PRF–CT medium containing 1 nM E2 for 48 h. MCF-7 cells were trypsinized and transfected in suspension with 2.5 μg siRNA (siAR or scrambled siRNA) or pcDNA3.1-AR in six-well plates, using Lipofectamine 3000 (Invitrogen) in OPTI-MEM medium (Gibco), following the manufacturer’s instructions.

ZR-75-1 cells = assay: Cell proliferation assay (CCK8), ZR-75-1; type: cell-based, human; details: for proliferation of ZR-75-1 cells: 1 nM-10 μM, 6 days, 10% PRF-CT with 1 nM E2; for antiproliferative effect in presence of OH-Flutamide, ZR-75-1: 100 nM compound with 100 nM OH-Flutamide
Method: (§1) Fig. 2 Proliferative response of cancer cells to indicated compounds. a–c the effect of concentrations of different compounds on the growth of the cells. […] Cell growth was measured as described in the “Materials and methods”. The proliferation of cells is expressed as the ratio of the cells compared with the control wells (untreated cells). d, e Influence of different compounds on the cell cycle of MCF-7 cells. MCF-7 cells were cultured in 10% PRF-CT with E2 (1 nM) for 3 days before plating. Cells were seeded in six-well plates and, the next day, starved in PRF for 24 h. Cells were exposed to different compounds at a concentration of 100 nM for 72 h, and then subjected to cell-cycle analysis as described in “Materials and methods”. f MCF-7 cells on poly-L-lysine-coated glass coverslips were exposed to compounds (100 nM) in 10% PRF-CT with 1 nM E2 for 72 h. Control cells were treated with vehicle. DAPI stains DNA, and the secondary anti-mouse antibody to detect the antibody bound to Ki-67 is labeled with the cyanine dye Cy3. The cells were stained with DAPI (blue). Immunofluorescence staining of Ki-67 of cells was observed using fluorescence microscope. Red: Ki-67; blue: nucleus.Typical image is shown. Scale bars: 10 μm. Data represent a mean ± SEM of three independent experiments, each in triplicate; bars, SEM. *P ≤ 0.05 vs. control
(§2) After 24 h, cells were exposed for 3–6 days to various concentrations of compounds (1 nM– 10 μM) or left untreated. The incubation time and the compounds concentrations were chosen based on previous studies[17],[32]–[34]. The effects of the various drugs on cell proliferation at the indicated concentrations (1 nM– 10 μM) were determined by using a CCK8 kit (Dojindo Laboratories, Kumamoto, Japan) according to the manufacturer’s protocol. The absorbance at 450 nm was measured by using a Versamax microplate reader (Thermo Varioskan Flash, USA). Cell growth is expressed as the ratio of the cells compared with the control wells (untreated cells).

[1] = system: DMBA-induced mammary carcinoma; assay: DMBA-induced mammary carcinoma, topical treatment; type: in vivo, female Sprague-Dawley rats; details: cream 2.5% topically twice daily; for tumor growth: 4 weeks, ovariectomized rats given E2 1 μg/rat daily; for average tumor number after 28 days of treatment: 1.2 ± 0.15 at the beginning, control 4.3 ± 1.2
Method: Fig. 8 The effects of sterols on the DMBA-induced mammary carcinoma in rats. At an age of 50–54 days, female Sprague-Dawley rats were dosed intragastrically with 20 mg DMBA. when at least one tumor measuring 1 cm in diameter was found, the rats were ovariectomized and given intramuscular 1 μg/rat E2 daily. Animals were selected for experiments when at least one tumor per rat had reached a diameter of 1.5 cm. The skin covering the tumor was shaved and animals were divided into four groups. […] Untreated tumors served as controls. a Representative images of the tumors. b Tumor growth curve. c Average number of tumor nodules before and after treatment.The data represent six sets of independent experiments and are shown as the means ± SD. *P < 0.05, **P ≤ 0.01 vs. control group
At an age of 50–54 days, female Sprague-Dawley rats were dosed intragastrically with 20 mg DMBA (Sigma Chemical Co.) dissolved in peanut oil (1 ml/rat). Starting at 40 days after DMBA treatment, animals were examined weekly by palpation; when at least one tumor measuring 1 cm in diameter was found, the rats were ovariectomized using ether anesthesia and were given E2 (1 μg/rat) by daily intramuscular injection. Animals were selected for experiments when at least one tumor per rat had reached a diameter of 1.5 cm. Tumors were measured with calipers once a week, and their volume was calculated according to the following formula: volume = length × (width)^2 × 0.5. Rats were then divided into four groups of six animals each. […] All creams were applied for 4 weeks. […] Tumor growth in the control and treated groups was expressed as a value relative to the initial tumor volume, measured on the 1st day of treatment and taken as 1. At the beginning and end of the treatment period, the number of tumor nodules was counted.

MCF-7 cells = assay: Cell proliferation assay (CCK8), MCF-7; type: cell-based, human; details: for proliferation of MCF-7 cells: 1 nM-10 μM, 6 days, 10% PRF-CT with 1 nM E2; for antiproliferative effect in presence of OH-Flutamide, MCF-7: 100 nM compound with 100 nM OH-Flutamide
Method: as §1, §2

Compound	inhibition of proliferation after AR downregulation (MCF-7 cells (AR siRNA))	proliferation of ZR-75-1 cells (ZR-75-1 cells)	antiproliferative effect in presence of OH-Flutamide, ZR-75-1 (ZR-75-1 cells)	tumor growth [1]	average tumor number after 28 days of treatment [1]	proliferation of MCF-7 cells (MCF-7 cells)	antiproliferative effect in presence of OH-Flutamide, MCF-7 (MCF-7 cells)	appearance of new tumors at end of treatment ([1]; 28 days, vs control)
C[C@]12CCC(=O)C[C@@H]1CC[C@@H]1[C@@H]2CC[C@]2(C)[C@@H](O)CC[C@@H]12 [DHT, dihydrotestosterone]	AR downregulation diminishes the ability	inhibits the proliferation of MCF-7 and ZR-75-1 cells at all tested concentrations	almost completely abolished	growth arrest	2.25 ± 0.8 tumors per rat	inhibits the proliferation of MCF-7 and ZR-75-1 cells at all tested concentrations	almost completely abolished	–
C=C1C[C@H]2[C@@H]3CC[C@H](O)[C@@]3(C)CC[C@@H]2[C@@]2(C)C=CC(=O)C=C12 [17-HEXE, 17-hydroexemestane]	identical results	–	behave like DHT	growth arrest	2.85 ± 0.68 tumors per rat	–	behave like DHT	–
C[C@]12CC[C@H]3[C@@H](CCC4=C(O)C(=O)CC[C@@]43C)[C@@H]1CC[C@@H]2O [4-OHT, 4-hydroxytestosterone]	identical results	inhibits the proliferation of ZR-75-1 cells only at micromolar concentrations	behave like DHT	shrinkage of the tumor	1.6 ± 0.4 tumors per rat	strongly antiproliferative	behave like DHT	almost did not develop new tumors
